{"source": "patent US20220409620A1", "about": "“REDUCING IMMUNOGENICITY TO PEGLOTICASE” (Horizon Pharma Rheumatology LLC, priority 2016, published 2022)", "system": "adult patients with uncontrolled gout", "assay": "Serum uric acid (sUA) levels and sUA responder rate, open-label study of pegloticase with MTX (MIRROR OL)", "assay_type": "in vivo, human", "conditions": "Month 6 sUA Responders", "method": "The primary objective is to estimate the response rate during Month 6 (Weeks 20, 22, and 24), as measured by the sustained normalization of serum uric acid (SUA) to <6 mg/dL for at least 80% of the time during Month 6 in subjects receiving KXX with MTX.\nThe primary efficacy outcome endpoint is the sustained normalization of SUA to <6 mg/dL for at least 80% of the time during month 6 (weeks 20, 22, and 24) in subjects receiving KXX with MTX. […] Participants who achieve this endpoint were classified as “responders.” Serum uric acid (SUA) responders may also be defined as participants achieving and maintaining SUA <6 mg/dL for at least 80% of the time during Month 6 (Weeks 20, 22, and 24).\nBlood samples may be collected prior to each pegloticase infusion for measurement of SUA levels using the Beckman Coulter AU System Uric Acid procedure. Participants were declared “non-responders” if there were SUA measures >6 mg/dL at 2 consecutive study visits beginning with the week 2 visit. […] This assumption and subsequent discontinuation of pegloticase was consistent with the protocol of large phase III randomized controlled trials and the product label. A formal stopping rule was 2 occasions of SUA levels of greater than 6 mg/dL.\nClinical Chemistry—Blood samples were collected prior to each pegloticase infusion for measurement of SUA levels (primary efficacy parameter) using the Beckman Coulter AU System Uric Acid procedure. In this procedure uric acid is converted to hydrogen peroxide. Hydrogen peroxide reacts with reagent to produce a chromophore which is read bichromatically at 660/800 nm. The amount of dye formed is proportional to the uric acid concentration in the sample.\nSerum samples for measurement of SUA levels were collected at the Screening Visit, the Week −4 Visit (prior to the first dose of MTX), and the Week −2 Visit during the MTX Run-in Period; within 48 hours prior to each pegloticase infusion and after the end of each pegloticase infusion prior to discharge from the site during the Pegloticase+IMM Period; at the non-infusion Week 52/End of Study/Early Termination Visits and at the Post Treatment 3 and 6 Month Follow-up Visits. Additional serum samples for SUA levels were collected at optional non-infusion (Frequent Sampling) Visits at Weeks 1 and 7. […] Subjects with SUA level >6 mg/dL at 2 consecutive visits beginning at Week 2 visit discontinued treatment, completed the End of Pegloticase Infusion Visit procedures within 2 weeks and continued the subject visits according to the protocol (without treatment).\nEfficacy analyses were performed using the modified intention-to-treat (mITT) population, defined as all enrolled subjects who received ≥1 dose of pegloticase. The proportion of Month 6 responders was summarized, along with a 95% confidence interval for the proportion. The proportion of Month 3 and overall (Months 3 and 6 combined) responders was analyzed similarly.\nA subject was declared a non-responder if the subject had SUA level >6 mg/dL at 2 consecutive study visits beginning with the Week 2 Visit. In addition, a subject who withdraws from study treatment for any reason after the first dose of pegloticase in the KXX+MTX Period and prior to Month 6 (for the primary endpoint) or Month 3 (for the secondary endpoint) was considered a non-responder if SUA values were not collected at the planned time points.\nPatients were administered oral MTX (15 mg/week) and folate (1 mg/day) 4 weeks prior to the first pegloticase infusion (Day 1) and throughout the pegloticase treatment period. Blood was drawn prior to each infusion to measure sUA level, monitor clinical parameters, and examine for ADA development. All patients followed typical IR prophylaxis protocols (fexofenadine one day before and the morning of each infusion and acetaminophen and IV corticosteroid the morning of each infusion).", "key": {"[1]": {"conditions": "End of Pegloticase Infusions Visit, n=2"}}}
{"substance": "pegloticase", "values": [{"measurement": "Serum Uric Acid, Observed, Median", "setting": "Day 1-Post-Infusion, n=8", "result": 0.30, "unit": "mg/dL"}, {"measurement": "sUA <6 mg/dL, n (%)", "setting": "Day 1-Post-Infusion, n=8", "result": "8 (100%)"}, {"measurement": "Serum Uric Acid, Change from Baseline, Mean (SD)", "setting": "[1]", "result": "−8.50 (1.556) mg/dL"}, {"measurement": "Serum Uric Acid, Change from Baseline, Median", "setting": "[1]", "result": -8.50, "unit": "mg/dL"}, {"measurement": "Serum Uric Acid, Observed, Mean (SD)", "setting": "[1]", "result": "0.30 (0.000) mg/dL"}, {"measurement": "Serum Uric Acid, Observed, Median", "setting": "[1]", "result": 0.30, "unit": "mg/dL"}, {"measurement": "sUA <6 mg/dL, n (%)", "setting": "[1]", "result": "2 (100%)"}, {"measurement": "Serum Uric Acid, Change from Baseline, Mean (SD)", "setting": "Week 1, n=4", "result": "−6.88 (1.836) mg/dL"}, {"measurement": "Serum Uric Acid, Change from Baseline, Median", "setting": "Week 1, n=4", "result": -7.15, "unit": "mg/dL"}, {"measurement": "Serum Uric Acid, Observed, Mean (SD)", "setting": "Week 1, n=4", "result": "0.30 (0.000) mg/dL"}, {"measurement": "Serum Uric Acid, Observed, Median", "setting": "Week 1, n=4", "result": 0.30, "unit": "mg/dL"}, {"measurement": "sUA <6 mg/dL, n (%)", "setting": "Week 1, n=4", "result": "4 (100%)"}, {"measurement": "Serum Uric Acid, Change from Baseline, Mean (SD)", "setting": "Week 2-Post-Infusion, n=11", "result": "−8.97 (2.810) mg/dL"}, {"measurement": "Serum Uric Acid, Change from Baseline, Median", "setting": "Week 2-Post-Infusion, n=11", "result": -8.80, "unit": "mg/dL"}, {"measurement": "Serum Uric Acid, Observed, Mean (SD)", "setting": "Week 2-Post-Infusion, n=11", "result": "0.30 (0.000) mg/dL"}, {"measurement": "Serum Uric Acid, Observed, Median", "setting": "Week 2-Post-Infusion, n=11", "result": 0.30, "unit": "mg/dL"}, {"measurement": "sUA <6 mg/dL, n (%)", "setting": "Week 2-Post-Infusion, n=11", "result": "11 (100%)"}, {"measurement": "Serum Uric Acid, Change from Baseline, Mean (SD)", "setting": "Week 2-Pre-Infusion, n=11", "result": "−8.64 (2.086) mg/dL"}, {"measurement": "Serum Uric Acid, Change from Baseline, Median", "setting": "Week 2-Pre-Infusion, n=11", "result": -8.80, "unit": "mg/dL"}, {"measurement": "Serum Uric Acid, Observed, Mean (SD)", "setting": "Week 2-Pre-Infusion, n=11", "result": "0.63 (1.096) mg/dL"}, {"measurement": "Serum Uric Acid, Observed, Median", "setting": "Week 2-Pre-Infusion, n=11", "result": 0.30, "unit": "mg/dL"}, {"measurement": "sUA <6 mg/dL, n (%)", "setting": "Week 2-Pre-Infusion, n=11", "result": "11 (100%)"}, {"measurement": "Serum Uric Acid, Change from Baseline, Mean (SD)", "setting": "Week 4-Post-Infusion, n=11", "result": "−8.97 (2.810) mg/dL"}, {"measurement": "Serum Uric Acid, Observed, Mean (SD)", "setting": "Week 4-Post-Infusion, n=11", "result": "0.30 (0.000) mg/dL"}, {"measurement": "Serum Uric Acid, Change from Baseline, Mean (SD)", "setting": "Week 4-Pre-Infusion, n=11", "result": "−8.59 (2.884) mg/dL"}, {"measurement": "Serum Uric Acid, Change from Baseline, Median", "setting": "Week 4-Pre-Infusion, n=11", "result": -8.60, "unit": "mg/dL"}, {"measurement": "Serum Uric Acid, Observed, Mean (SD)", "setting": "Week 4-Pre-Infusion, n=11", "result": "0.68 (1.043) mg/dL"}, {"measurement": "Serum Uric Acid, Observed, Median", "setting": "Week 4-Pre-Infusion, n=11", "result": 0.30, "unit": "mg/dL"}, {"measurement": "sUA <6 mg/dL, n (%)", "setting": "Week 4-Pre-Infusion, n=11", "result": "11 (100%)"}, {"measurement": "sUA <6 mg/dL, n (%)", "setting": "Week 7, n=4", "result": "4 (100%)"}, {"measurement": "Serum Uric Acid, Change from Baseline, Mean (SD)", "setting": "Week 8-Post-Infusion, n=11", "result": "−8.97 (2.810) mg/dL"}, {"measurement": "Serum Uric Acid, Change from Baseline, Median", "setting": "Week 8-Post-Infusion, n=11", "result": -8.80, "unit": "mg/dL"}, {"measurement": "Serum Uric Acid, Observed, Mean (SD)", "setting": "Week 8-Post-Infusion, n=11", "result": "0.30 (0.000) mg/dL"}, {"measurement": "Serum Uric Acid, Observed, Median", "setting": "Week 8-Post-Infusion, n=11", "result": 0.30, "unit": "mg/dL"}, {"measurement": "sUA <6 mg/dL, n (%)", "setting": "Week 8-Post-Infusion, n=11", "result": "11 (100%)"}, {"measurement": "Serum Uric Acid, Change from Baseline, Mean (SD)", "setting": "Week 8-Pre-Infusion, n=11", "result": "−8.91 (2.824) mg/dL"}, {"measurement": "Serum Uric Acid, Change from Baseline, Median", "setting": "Week 8-Pre-Infusion, n=11", "result": -8.60, "unit": "mg/dL"}, {"measurement": "Serum Uric Acid, Observed, Mean (SD)", "setting": "Week 8-Pre-Infusion, n=11", "result": "0.37 (0.224) mg/dL"}, {"measurement": "Serum Uric Acid, Observed, Median", "setting": "Week 8-Pre-Infusion, n=11", "result": 0.30, "unit": "mg/dL"}, {"measurement": "sUA <6 mg/dL, n (%)", "setting": "Week 8-Pre-Infusion, n=11", "result": "11 (100%)"}, {"measurement": "Serum Uric Acid, Change from Baseline, Mean (SD)", "setting": "Week 10-Post-Infusion, n=11", "result": "−8.97 (2.810) mg/dL"}, {"measurement": "Serum Uric Acid, Change from Baseline, Median", "setting": "Week 10-Post-Infusion, n=11", "result": -8.80, "unit": "mg/dL"}, {"measurement": "Serum Uric Acid, Observed, Mean (SD)", "setting": "Week 10-Post-Infusion, n=11", "result": "0.30 (0.000) mg/dL"}, {"measurement": "Serum Uric Acid, Observed, Median", "setting": "Week 10-Post-Infusion, n=11", "result": 0.30, "unit": "mg/dL"}, {"measurement": "sUA <6 mg/dL, n (%)", "setting": "Week 10-Post-Infusion, n=11", "result": "11 (100%)"}, {"measurement": "Serum Uric Acid, Change from Baseline, Mean (SD)", "setting": "Week 10-Pre-Infusion, n=11", "result": "−8.97 (2.810) mg/dL"}, {"measurement": "Serum Uric Acid, Change from Baseline, Median", "setting": "Week 10-Pre-Infusion, n=11", "result": -8.80, "unit": "mg/dL"}, {"measurement": "Serum Uric Acid, Observed, Mean (SD)", "setting": "Week 10-Pre-Infusion, n=11", "result": "0.30 (0.000) mg/dL"}, {"measurement": "Serum Uric Acid, Observed, Median", "setting": "Week 10-Pre-Infusion, n=11", "result": 0.30, "unit": "mg/dL"}, {"measurement": "sUA <6 mg/dL, n (%)", "setting": "Week 10-Pre-Infusion, n=11", "result": "11 (100%)"}, {"measurement": "Serum Uric Acid, Change from Baseline, Mean (SD)", "setting": "Week 12-Post-Infusion, n=10", "result": "−9.13 (2.911) mg/dL"}, {"measurement": "Serum Uric Acid, Change from Baseline, Median", "setting": "Week 12-Post-Infusion, n=10", "result": -9.05, "unit": "mg/dL"}, {"measurement": "Serum Uric Acid, Observed, Mean (SD)", "setting": "Week 12-Post-Infusion, n=10", "result": "0.30 (0.000) mg/dL"}, {"measurement": "Serum Uric Acid, Observed, Median", "setting": "Week 12-Post-Infusion, n=10", "result": 0.30, "unit": "mg/dL"}, {"measurement": "sUA <6 mg/dL, n (%)", "setting": "Week 12-Post-Infusion, n=10", "result": "10 (100%)"}, {"measurement": "Serum Uric Acid, Change from Baseline, Mean (SD)", "setting": "Week 12-Pre-Infusion, n=11", "result": "−8.98 (2.806) mg/dL"}, {"measurement": "Serum Uric Acid, Change from Baseline, Median", "setting": "Week 12-Pre-Infusion, n=11", "result": -8.80, "unit": "mg/dL"}, {"measurement": "Serum Uric Acid, Observed, Mean (SD)", "setting": "Week 12-Pre-Infusion, n=11", "result": "0.30 (0.015) mg/dL"}, {"measurement": "Serum Uric Acid, Observed, Median", "setting": "Week 12-Pre-Infusion, n=11", "result": 0.30, "unit": "mg/dL"}, {"measurement": "sUA <6 mg/dL, n (%)", "setting": "Week 12-Pre-Infusion, n=11", "result": "11 (100%)"}, {"measurement": "Serum Uric Acid, Change from Baseline, Mean (SD)", "setting": "Week 14-Post-Infusion, n=10", "result": "−9.01 (2.959) mg/dL"}, {"measurement": "Serum Uric Acid, Change from Baseline, Median", "setting": "Week 14-Post-Infusion, n=10", "result": -9.05, "unit": "mg/dL"}, {"measurement": "Serum Uric Acid, Observed, Mean (SD)", "setting": "Week 14-Post-Infusion, n=10", "result": "0.30 (0.000) mg/dL"}]}
